Where a name gives a salt, the structure may show the parent alone. Read-outs that look alike come from different tables or passages of the source.
Key:
[1] = Description: The pH is measured on solutions diluted to 1 mg/ml with water or 70% water/30% acetonitrile (v/v). […] An amount of citric acid is used which will provide a solution pH in the range of about 3-5, preferably 3-4.5.
We have tested a number of antioxidants including α-tocopherol, tert-butylhydroquinone (TBHQ), sodium formaldehyde bisulfite, butylated hydroxy anisole (BHA), butylated hydroxy toluene (BHT), sodium bisulfite and propyl gallate. […] Generally an amount of α-tocopherol, tert-butylhydroquinone or sodium formaldehyde bisulfite is employed in the range of about 0.1-2 mg/ml. The preferred concentration of antioxidant is about 0.5-2 mg/ml with about 2 mg/ml being most preferred.
Glass vials may conveniently be used as the container.

[2] = Solubility of doxorubicin HCl in nonaqueous solvents; type: physicochemical; settings: organic solvent or mixture
[3] = cited from earlier work; for reconstituted solution remains stable: in 0.9% NaCl solution, Ketchum, et al. 1981
[4] = cited from earlier work

CCCCCCCC/C=C\CCCCCCCC(=O)OCCOCC(OCCO)C1OCC(OCCO)C1OCCO (stereo not drawn) [Tween-80]
effect of additive on stability of the solutions [1]: did not improve stability

O=C(O)CC(O)(CC(=O)O)C(=O)O [citric acid]
stability of the solutions with the acid used for pH control ([1]; acid used to reach a pH range of about 3-5): optimum stability

COc1cccc2c1C(=O)c1c(O)c3c(c(O)c1C2=O)C[C@@](O)(C(=O)CO)C[C@@H]3O[C@H]1C[C@H](N)[C@H](O)[C@H](C)O1 [doxorubicin HCl, doxorubicin hydrochloride]
solubility ([2]; glycerol formal, pyrrolidinones, glycerol formal, 2-pyrrolidinone and 1-methyl-2-pyrrolidinone, read-out: concentration of solutions produced): ≥ 5000 µg/mL | solubility ([2]; glycols with 5-10% water, propylene glycol, 1,2-dihydroxybutane, 1,3-dihydroxypropane with addition of 5-10% (v/v) water, read-out: solubility): ~20000 µg/mL | solubility ([2]; nonaqueous solvents, same three solvents after short-term (0.5-1 hour) warming (60-80°C) with vigorous stirring, read-out: solubility): ~10000 µg/mL | solubility ([2]; nonaqueous solvents, with heating, polyethylene glycols, ethanol, benzyl alcohol, dimethylisosorbide, ethyl lactate, Solketol, Cremophors, Pluronics, read-out: solubility): < 5000 µg/mL | solubility ([2]; propylene glycol, 1,2-dihydroxybutane, 1,3-dihydroxypropane, room temperature, in propylene glycol, 1,2-dihydroxybutane and 1,3-dihydroxypropane, read-out: solubility): < 5000 µg/mL | chemical stability of solutions ([1]; glycerol formal, 2-pyrrolidinone and 1-methyl-2-pyrrolidinone): chemically unstable | potency loss ([1]; short-term (0.5-1 hour) warming (60-80°C) in propylene glycol, 1,2-dihydroxybutane or 1,3-dihydroxypropane): no potency loss | physical stability of the solution on storage ([1]; stored at 4°C to -20°C, seeding with crystalline doxorubicin HCl does not affect crystallization): remains in solution | reconstituted solution remains stable ([3]; 5°C): seven | reconstituted solution remains stable ([3]; room temperature): seven | reconstituted solutions stable (≦10% potency loss) ([3]; refrigerated at 4°C, Hoffman, et al. 1979): up to six | pH of maximum stability ([4]; Tris or phosphate buffers using HCl to adjust pH, Janssen, et al. 1985): 4 | pH of optimum stability ([4]; reconstitution solvent 5% Dextrose Injection, USP, Poochikian, et al. 1981): ~4.5

O=S(=O)(O)CO [sodium formaldehyde bisulfite]
stability of the solutions with the antioxidant [1]: resulted in the desired stability

CC(C)(C)c1cc(O)ccc1O [tert-butylhydroquinone]
stability of the solutions with the antioxidant ([1]; elevated temperatures as well as room temperature (25°C) or below): resulted in the desired stability

Cc1c(C)c2c(c(C)c1O)CCC(C)(CCCC(C)CCCC(C)CCCC(C)C)O2 (stereo not drawn) [α-tocopherol]
stability of the solutions with the antioxidant [1]: resulted in the desired stability

From EP0299528A1, “Doxorubicin hydrochloride nonaqueous solution” (Bristol-Myers Squibb Company, priority 1987, dated 1989)
